# Earlier results, collected in article PMC2891520 (The Journal of neuroscience : the official journal of the …, 2010).
# Molecular target: CaMKII (Homo sapiens, UniProt Q9UQM7)
# Conditions: ref Vest et al., 2010
structure (smiles),measurement,value
COc1ccc(S(=O)(=O)N(CCO)c2ccccc2CN(C)C/C=C/c2ccc(Cl)cc2)cc1 [KN93],block of autonomous CaMKII activity once generated,does not block autonomous activity once it is generated
